Drawing on patent US7081531B2, “Bridged bicyclic amine derivatives useful as CCR-3 receptor antagonists” (Roche Palo Alto LLC, priority 2003, dated 2006), this text covers IC50 and melting point for three molecules.

For one data set, the target named is T1, CCR-3 receptor (Homo sapiens, UniProt P51677).
T1 construct: expressed in transfected cells; host or cells: L1.2 (murine pre-beta lymphoma line) transfected with CCR-3
T1 sequence (P51677 1-355): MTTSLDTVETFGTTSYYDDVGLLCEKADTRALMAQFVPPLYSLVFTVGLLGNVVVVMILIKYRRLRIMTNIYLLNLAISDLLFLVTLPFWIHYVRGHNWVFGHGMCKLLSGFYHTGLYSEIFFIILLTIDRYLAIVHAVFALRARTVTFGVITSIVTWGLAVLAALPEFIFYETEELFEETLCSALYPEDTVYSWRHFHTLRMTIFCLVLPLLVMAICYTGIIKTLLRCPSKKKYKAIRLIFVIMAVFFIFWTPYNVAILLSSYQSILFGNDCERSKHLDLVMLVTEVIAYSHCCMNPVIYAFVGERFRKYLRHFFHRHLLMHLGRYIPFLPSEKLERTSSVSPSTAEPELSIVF
Description: CCR-3 receptor binding assay, inhibition of 125I eotaxin binding to CCR-3 L1.2 transfectant cells. Particulars: inhibition of 125I-eotaxin binding to CCR-3 L1.2 transfected cells, 1 hour at rt. The protocol: CCR-3 Receptor Binding Assay—In Vitro
The CCR-3 antagonistic activity of the compounds of the invention was determined by their ability to inhibit the binding of ^125I eotaxin to CCR-3 L1.2 transfectant cells (see Ponath, P. D. et al., J. Exp. Med., 183:2437–48, (1996)).
The assay was performed in Costar 96-well polypropylene round bottom plates. Test compounds were dissolved in DMSO and then diluted with binding buffer (50 mM HEPES, 1 mM CaCl2, 5 mM MgCl2, 0.5% bovine serum albumin (BSA), 0.02% sodium azide, pH 7.24) such that the final DMSO concentration was 2%. 25 μl of the test solution or only buffer with DMSO (control samples) was added to each well, followed by the addition of 25 μl of ^125I-eotaxin ([…]) (NEX314, New England Nuclear, Boston, Mass.) and 1.5×10^5 of the CCR-3 L1.2 transfected cells in 25 μl binding buffer. The final reaction volume was 75 μl.
After incubating the reaction mixture for 1 hour at rt, the reaction was terminated by filtering the reaction mixture through a polyethylenimine-treated Packard Unifilter GF/C filter plate (Packard, Chicago, Ill.). The filters were washed four times with ice cold wash buffer containing 10 mm HEPES and 0.5 M sodium chloride (pH 7.2) and dried at 65° C. for approximately 10 minutes. 25 μl/well of Microscint-20® scintillation fluid (Packard) was added and the radioactivity retained on the filters was determined by using the Packard TopCount®
Compounds of this invention were active in this assay.

`Cc1c(CN2CC3CCC2CC3Cc2ccc(Cl)c(Cl)c2)c(=O)n(-c2ccccc2)n1C` (stereo not shown) [Example 2, 4-[5-(3,4-Dichloro-benzyl)-2-aza-bicyclo[2.2.2]oct-2-ylmethyl]-1,5-dimethyl-2-phenyl-1,2-dihydro-pyrazol-3-one]: on CCR-3 receptor, the IC50 (in general, the concentration that inhibits the measured activity by half) is 331 nM.

Take `COc1cc(NC(=O)N[C@@H](CN2C3CCC2CC(Cc2ccc(Cl)cc2)C3)[C@@H](C)O)cc(OC)c1OC` (stereo partly shown) [Example 7]: the melting point – broadly, the temperature of the solid-liquid transition – was 118 to 123 °C. The molecule also showed an IC50 on CCR-3 receptor of 8.2 nM. On to `Cc1c(CN2C3CCC2CC(Cc2ccc(Cl)c(Cl)c2)C3)c(=O)n(-c2ccccc2)n1C` (stereo not shown) [Example 6, 4-[3-(3,4-dichloro-benzyl)-8-aza-bicyclo[3.2.1]oct-8-ylmethyl]-1,5-dimethyl-2-phenyl-1,2-dihydro-pyrazol-3-one], for which the concentration for half-maximal inhibition (IC50) on CCR-3 receptor was determined as 965 nM.
